Results reported in patent US11634447B2 (priority 2012, dated 2023).

Each compound was assayed against bacterial strain LF82 binding to the glycoprotein BSA-(Mannose)3 (assay: Bacterial Binding Assay (BBA)). Settings: LF82/Luciferase strain binding to BSA-(Man)3 coated plates, luminescence; read-out: Bacterial Binding Assay IC50.
Assay type: cell-based, Escherichia coli
Summary of the method: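 Inhibition of LF82/luciferase E. coli adhesion is read as luminescence after washing off unbound cells. Compound and bacteria (10^7 per well) are co-incubated 40-75 min at room temperature on wells coated with 0.5-2 μg/mL BSA-(Man)3, with BSA-only wells as background; IC50 values derived.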

With `OC[C@H]1O[C@H](C#Cc2ccc3c(c2)C2(CC(O)C(O)CO2)c2cc(C#C[C@H]4O[C@H](CO)[C@@H](O)[C@H](O)[C@@H]4O)ccc2-3)[C@@H](O)[C@@H](O)[C@@H]1O` (some centres unmarked) [Compound 197] as the compound, how does the IC50 read?
Its IC50 is 0.83 nM.

Same assay, conditions: read-out: Bacterial Binding Assay IC50, LF82/Luciferase strain binding to BSA-(Man)3 coated plates, luminescence

`OCC(O)CC1(O)c2cc(C#C[C@H]3O[C@H](CO)[C@@H](O)[C@H](O)[C@@H]3O)ccc2-c2ccc(C#C[C@H]3O[C@H](CO)[C@@H](O)[C@H](O)[C@@H]3O)cc21` (stereo partly drawn) [Compound 196, (2R,3S,4R,5S,6R)-2-[2-[9-(2,3-dihydroxypropyl)-9-hydroxy-7-[2-[(2R,3S,4R,5S,6R)-3,4,5-trihydroxy-6-(hydroxymethyl)tetrahydropyran-2-yl]ethynyl]fluoren-2-yl]ethynyl]-6-(hydroxymethyl)tetrahydropyran-3,4,5-triol] was tested. Which IC50 did it give?
The IC50 was 28 nM.

`CN1CCN(C2c3cc(C#C[C@H]4O[C@H](CO)[C@@H](O)[C@H](O)[C@@H]4O)ccc3-c3ccc(C#C[C@H]4O[C@H](CO)[C@@H](O)[C@H](O)[C@@H]4O)cc32)CC1` [Compound 198, (2R,3S,4R,5S,6R)-2-(hydroxymethyl)-6-[2-[9-(4-methylpiperazin-1-yl)-7-[2-[(2R,3S,4R,5S,6R)-3,4,5-trihydroxy-6-(hydroxymethyl)tetrahydropyran-2-yl]ethynyl]-9H-fluoren-2-yl]ethynyl]tetrahydropyran-3,4,5-triol] was tested. Which IC50 did it give?
The IC50 was 24 nM.

Which IC50 does the source give for `OC[C@H]1O[C@H](C#Cc2ccc3c(c2)C2(CCCCO2)c2cc(C#C[C@H]4O[C@H](CO)[C@@H](O)[C@H](O)[C@@H]4O)ccc2-3)[C@@H](O)[C@@H](O)[C@@H]1O` (some centres unmarked) [Compound 199] here?
Its IC50 is 0.21 nM.

With `OC[C@H]1O[C@H](C#Cc2ccc3c(c2)C2(CCC(O)CC2)c2cc(C#C[C@H]4O[C@H](CO)[C@@H](O)[C@H](O)[C@@H]4O)ccc2-3)[C@@H](O)[C@@H](O)[C@@H]1O` (some centres unmarked) [Compound 203] as the compound, how does the IC50 read?
The IC50 was 0.04 nM.

How did the IC50 turn out when `CC1(O)CCC2(CC1)c1cc(C#C[C@H]3O[C@H](CO)[C@@H](O)[C@H](O)[C@@H]3O)ccc1-c1ccc(C#C[C@H]3O[C@H](CO)[C@@H](O)[C@H](O)[C@@H]3O)cc12` [Compound 204] was run?
Its IC50 is 0.8 nM.

For `NC1CCC2(CC1)c1cc(C#C[C@H]3O[C@H](CO)[C@@H](O)[C@H](O)[C@@H]3O)ccc1-c1ccc(C#C[C@H]3O[C@H](CO)[C@@H](O)[C@H](O)[C@@H]3O)cc12` [Compound 205], which IC50 is on record?
The IC50 was 0.39 nM.

Which IC50 does the source give for `CC(C)OC(=O)c1c(C#C[C@H]2O[C@H](CO)[C@@H](O)[C@H](O)[C@@H]2O)ccc2c1C1(CCNCC1)c1cc(C#C[C@H]3O[C@H](CO)[C@@H](O)[C@H](O)[C@@H]3O)ccc1-2` [Compound 208] here?
Its IC50 is 0.03 nM.

With `CCOC(=O)c1c(C#C[C@H]2O[C@H](CO)[C@@H](O)[C@H](O)[C@@H]2O)ccc2c1C1(CCNCC1)c1cc(C#C[C@H]3O[C@H](CO)[C@@H](O)[C@H](O)[C@@H]3O)ccc1-2` [Compound 209, ethyl 2,7-bis[2-[(2R,3S,4R,5S,6R)-3,4,5-trihydroxy-6-(hydroxymethyl)tetrahydropyran-2-yl]ethynyl]spiro[fluorene-9,4 piperidine]-1 carboxylate] as the compound, how does the IC50 read?
Its IC50 is 0.07 nM.

For `CC(=O)OCC1(COC(C)=O)c2cc(C#C[C@H]3O[C@H](CO)[C@@H](O)[C@H](O)[C@@H]3O)ccc2-c2ccc(C#C[C@H]3O[C@H](CO)[C@@H](O)[C@H](O)[C@@H]3O)cc21` [Compound 211, [9-(acetoxymethyl)-2,7-bis[2-[(2R,3S,4R,5S,6R)-3,4,5-trihydroxy-6-(hydroxymethyl)tetrahydropyran-2-yl]ethynyl]fluoren-9-yl]methyl acetate], which IC50 is on record?
The IC50 was 2.2 nM.

`OC[C@H]1O[C@H](C#Cc2cc(C#C[C@H]3O[C@H](CO)[C@@H](O)[C@H](O)[C@@H]3O)c3[nH]ncc3c2)[C@@H](O)[C@@H](O)[C@@H]1O` [Compound 212, (2R,3S,4R,5S,6R)-2-(hydroxymethyl)-6-[2-[7-[2-[(2R,3S,4R,5S,6R)-3,4,5-trihydroxy-6-(hydroxymethyl)tetrahydropyran-2-yl]ethynyl]-1H-indazol-5-yl]ethynyl]tetrahydropyran-3,4,5-triol] was tested. Which IC50 did it give?
The IC50 was 4.9 nM.

For `CN(C)CCN(C)C1c2cc(C#C[C@H]3O[C@H](CO)[C@@H](O)[C@H](O)[C@@H]3O)ccc2-c2ccc(C#C[C@H]3O[C@H](CO)[C@@H](O)[C@H](O)[C@@H]3O)cc21` [Compound 213, (2R,3S,4R,5S,6R)-2-[2-[9-[2-(dimethylamino)ethyl-methyl-amino]-7-[2-[(2R,3S,4R,5S,6R)-3,4,5-trihydroxy-6-(hydroxymethyl)tetrahydropyran-2-yl]ethynyl]-9H-fluoren-2-yl]ethynyl]-6-(hydroxymethyl)tetrahydropyran-3,4,5-triol], which IC50 is on record?
Its IC50 is 3.7 nM.

How did the IC50 turn out when `OC[C@H]1O[C@H](C#Cc2ccc3c(c2)C(O)(CC2CCCC2)c2cc(C#C[C@H]4O[C@H](CO)[C@@H](O)[C@H](O)[C@@H]4O)ccc2-3)[C@@H](O)[C@@H](O)[C@@H]1O` (stereo partly drawn) [Compound 214, (2R,3S,4R,5S,6R)-2-[2-[9-(cyclopentylmethyl)-9-hydroxy-7-[2-[(2R,3S,4R,5S,6R)-3,4,5-trihydroxy-6-(hydroxymethyl)tetrahydropyran-2-yl]ethynyl]fluoren-2-yl]ethynyl]-6-(hydroxymethyl)tetrahydropyran-3,4,5-triol] was run?
The IC50 was 0.45 nM.

For `OC[C@H]1O[C@H](C#Cc2ccc3c(c2)C(O)(CC2CCCCC2)c2cc(C#C[C@H]4O[C@H](CO)[C@@H](O)[C@H](O)[C@@H]4O)ccc2-3)[C@@H](O)[C@@H](O)[C@@H]1O` (stereo partly drawn) [Compound 215, (2R,3S,4R,5S,6R)-2-[2-[9-(cyclohexylmethyl)-9-hydroxy-7-[2-[(2R,3S,4R,5S,6R)-3,4,5-trihydroxy-6-(hydroxymethyl)tetrahydropyran-2-yl]ethynyl]fluoren-2-yl]ethynyl]-6-(hydroxymethyl)tetrahydropyran-3,4,5-triol], which IC50 is on record?
The IC50 was 5 nM.

With `OCCC1(O)c2cc(C#C[C@H]3O[C@H](CO)[C@@H](O)[C@H](O)[C@@H]3O)ccc2-c2ccc(C#C[C@H]3O[C@H](CO)[C@@H](O)[C@H](O)[C@@H]3O)cc21` [Compound 216, (2R,3S,4R,5S,6R)-2-[2-[9-hydroxy-9-(2-hydroxyethyl)-7-[2-[(2R,3S,4R,5S,6R)-3,4,5-trihydroxy-6-(hydroxymethyl)tetrahydropyran-2-yl]ethynyl]fluoren-2-yl]ethynyl]-6-(hydroxymethyl)tetrahydropyran-3,4,5-triol] as the compound, how does the IC50 read?
The IC50 was 9.9 nM.

`OC[C@H]1O[C@H](C#Cc2ccc3c(c2)C(CO)(CO)c2cc(C#C[C@H]4O[C@H](CO)[C@@H](O)[C@H](O)[C@@H]4O)ccc2-3)[C@@H](O)[C@@H](O)[C@@H]1O` [Compound 217, (2R,3S,4R,5S,6R)-2-[2-[9,9-Bis(hydroxymethyl)-7-[2-[(2R,3S,4R,5S,6R)-3,4,5-trihydroxy-6-(hydroxymethyl)tetrahydropyran-2-yl]ethynyl]fluoren-2-yl]ethynyl]-6-(hydroxymethyl)tetrahydropyran-3,4,5-triol] was tested. Which IC50 did it give?
Its IC50 is 20 nM.

How did the IC50 turn out when `O=C1CCC2(CCO1)c1cc(C#C[C@H]3O[C@H](CO)[C@@H](O)[C@H](O)[C@@H]3O)ccc1-c1ccc(C#C[C@H]3O[C@H](CO)[C@@H](O)[C@H](O)[C@@H]3O)cc12` [Compound 218, 2,7-bis[2-[(2R,3S,4R,5S,6R)-3,4,5-trihydroxy-6-(hydroxymethyl)tetrahydropyran-2-yl]ethynyl]spiro[fluorene-9,5oxepane]-2one] was run?
The IC50 was 0.09 nM.

For `O=C(O)CCC1(CCO)c2cc(C#C[C@H]3O[C@H](CO)[C@@H](O)[C@H](O)[C@@H]3O)ccc2-c2ccc(C#C[C@H]3O[C@H](CO)[C@@H](O)[C@H](O)[C@@H]3O)cc21` [Compound 219, 3-[9-(2-hydroxyethyl)-2,7-bis[2-[(2R,3S,4R,5S,6R)-3,4,5-trihydroxy-6-(hydroxymethyl)tetrahydropyran-2-yl]ethynyl]fluoren-9-yl]propanoic acid], which IC50 is on record?
The IC50 was 3.8 nM.

Which IC50 does the source give for `O=C(CN1CCOCC1)N1CCC2(CC1)c1cc(C#C[C@H]3O[C@H](CO)[C@@H](O)[C@H](O)[C@@H]3O)ccc1-c1ccc(C#C[C@H]3O[C@H](CO)[C@@H](O)[C@H](O)[C@@H]3O)cc12` [Compound 221, 1-[2,7-bis[2-[(2R,3S,4R,5S,6R)-3,4,5-trihydroxy-6-(hydroxymethyl)tetrahydropyran-2-yl]ethynyl]spiro[fluorene-9,4piperidine]-1l]-2-morpholino-ethanone] here?
The IC50 was 0.04 nM.

Which IC50 does the source give for `CN(C)CC(=O)c1c(C#C[C@H]2O[C@H](CO)[C@@H](O)[C@H](O)[C@@H]2O)ccc2c1C1(CCNCC1)c1cc(C#C[C@H]3O[C@H](CO)[C@@H](O)[C@H](O)[C@@H]3O)ccc1-2` [Compound 222, 1-[2,7-bis[2-[(2R,3S,4R,5S,6R)-3,4,5-trihydroxy-6-(hydroxymethyl)tetrahydropyran-2-yl]ethynyl]spiro[fluorene-9,4piperidine]-1yl]-2-(dimethylamino)ethanone] here?
Its IC50 is 0.08 nM.

`CCC(=O)c1c(C#C[C@H]2O[C@H](CO)[C@@H](O)[C@H](O)[C@@H]2O)ccc2c1C1(CCNCC1)c1cc(C#C[C@H]3O[C@H](CO)[C@@H](O)[C@H](O)[C@@H]3O)ccc1-2` [Compound 223, 1-[2,7-bis[2-[(2R,3S,4R,5S,6R)-3,4,5-trihydroxy-6-(hydroxymethyl)tetrahydropyran-2-yl]ethynyl]spiro[fluorene-9,4piperidine]-1-yl]propan-1-one] was tested. Which IC50 did it give?
Its IC50 is 0.06 nM.

For `CC(C)C(=O)N1CCC2(CC1)c1cc(C#C[C@H]3O[C@H](CO)[C@@H](O)[C@H](O)[C@@H]3O)ccc1-c1ccc(C#C[C@H]3O[C@H](CO)[C@@H](O)[C@H](O)[C@@H]3O)cc12` [Compound 224, 1-[2,7-bis[2-[(2R,3S,4R,5S,6R)-3,4,5-trihydroxy-6-(hydroxymethyl)tetrahydropyran-2-yl]ethynyl]spiro[fluorene-9,4piperidine]-1yl]-2-methyl-propan-l-one], which IC50 is on record?
The IC50 was 0.08 nM.

`CC1(C(=O)c2c(C#C[C@H]3O[C@H](CO)[C@@H](O)[C@H](O)[C@@H]3O)ccc3c2C2(CCNCC2)c2cc(C#C[C@H]4O[C@H](CO)[C@@H](O)[C@H](O)[C@@H]4O)ccc2-3)CC1` [Compound 225, [2,7-bis[2-[(2R,3S,4R,5S,6R)-3,4,5-trihydroxy-6-(hydroxymethyl)tetrahydropyran-2-yl]ethynyl]spiro[fluorene-9,4piperidine]-1yl]-(1-methylcyclopropyl)methanone] was tested. Which IC50 did it give?
Its IC50 is 1.2 nM.
